From US12570697B2, “Cyclic peptide useful in the treatment of cancer” (Syntherix Limited, priority 2019, dated 2026)
Ends that are not written are not given here.

Key:
[1] = system: human non-small cell lung cancer cells (NCIH-460); assay: killing of NCIH-460 cells by CLIPS-cyclised peptides of different warhead length (Table 1); assay type: cell-based; details: Homo sapiens, NCI-H460; Paclitaxel control; printed in the 0.2 μl Nanocin-PRO per well column
Protocol: The inventor undertook testing of the effect of various peptides which were cyclised using CLIPS technology on the killing of human non-small cell lung cancer cells (NCIH-460) in vitro. For each of the peptides, between two and four isomer fractions were received, giving a total of 12 peptide entities tested.
The following warhead lengths, obtained by adding flanking sarcosine residues, were tested: […]

[2] = system: NCI-H460 cells; assay: viability assay of CLIP cyclised peptides on NCI-H460 cells (Example 3, Table 2); assay type: cell-based, human; details: for cytotoxic activity against NCIH460 cells (in words): with and without Nanocin-PRO
Protocol: (§1) The following protocol was used: • 1) NCI-H460 cells were grown in Ham's F12 media supplemented with 10% FBS. • 2) Cells were harvested and seeded into 96-well plates at 500 cells per well. • 3) Peptides were diluted 1:2 from DMSO stock solutions to generate a 9-point dose range from a top concentration of 300 μM. Final DMSO concentration was constant at 1% (v/v). • 4) In line with the supplied Nanocin-PRO protocol, diluted peptides were incubated with Nanocin-PRO in media for 20 minutes prior to addition to cells. Nanocin-PRO was used at a final assay concentration of 0.2 μl per well. • 5) Cells were grown in the presence of peptide for 96 hours at 37° C., 5% CO2 in a humidified atmosphere. • 6) After 96 h, Alamar blue 10% (v/v) was added, incubated for a further 4 h and fluorescent product detected using a BMG FLUOstar plate reader. • 7) Media only background readings were subtracted before data was analysed using a 4-parameter logistic equation in GraphPad Prism.
Viability assays of the CLIP cyclised peptides were performed to examine the effect of four HILRa clipped peptides on the viability of NCIH460 cells (up to three isomers for each of the peptides). […] Results for HILRa 16A, 16B, 16C and HILRa 17A, 17B and 17C are depicted in FIG. 2.
Assays were performed in the presence and absence of the peptide transfection reagent Nanocin-PRO.

[3] = system: NCI-H460 cells; assay: NCI-H460 cell viability assay, glycosylated versus unglycosylated peptide (Example 4); assay type: cell-based, human; details: 0.2 μl Nanocin-Pro per well
Protocol: The inventor next undertook testing to determine whether the cytotoxicity of the peptides of the invention could be increased by glycosylation of the peptides. NCI-H460 cell viability assays were performed to compare the effect of a glycosylated clipped peptide (HILRa-Glu-01) versus the un-glycosylated version (HILRa-CL-17, HILRa-CL-17 was used in this study as a 1:1:1 mix of the three isomers HILRa-CL-17A, HILRa-CL-17B and HILRa-CL-17C).
Assays were performed in the presence and absence of the peptide transfection agent Nanocin-Pro.
as §1, with “HILRa peptides” for “Peptides”, “[…] Nanocin-Pro” for “Final DMSO concentration was constant at 1% (v/v). • 4) In line with the supplied Nanocin-PRO protocol, diluted peptides were incubated with Nanocin-PRO in media for 20 minutes prior to addition to cells. Nanocin-PRO”

[4] = system: H460 human non-small cell lung cancer cell lines; details: cited from earlier work
[5] = system: RT112 bladder cancer cell line; details: WO 2016/020437; cited from earlier work
[6] = system: MRC-5 cells; details: in vitro; WO 2016/020437; cited from earlier work

## CC(=O)O[C@H]1C(=O)[C@@]2(C)[C@H]([C@H](OC(=O)c3ccccc3)[C@]3(O)C[C@H](OC(=O)[C@H](O)[C@@H](NC(=O)c4ccccc4)c4ccccc4)C(C)=C1C3(C)C)[C@]1(OC(C)=O)CO[C@@H]1C[C@@H]2O [Paclitaxel, reference compound]
[1]
  IC50: 0.0074 µM
[2]; Homo sapiens, NCI-H460, Paclitaxel control, No Nanocin-PRO column
  IC50: 0.00495 µM

## Ac-C[Dac]R[Sar][Nap]R[Nap]C-NH2 [HILRa-CL-17]
[2]
  cytotoxic activity against NCIH460 cells (in words): greater potency than HILRa-CL-15
[2]; listed as HILRa-CL17
  cytotoxic activity against NCIH460 cells (in words): showed activity
[3]
  activity in the presence of Nanocin-PRO compared to its absence: much higher activity

## PRGPRPVALKLALKLAL [HILR-001]
[4]; as described in WO 2009/112536
  IC50: 200 µM
[4]; in vitro, WO 2009/112536
  killing of H460 cells versus primary diploid human fibroblasts, keratinocytes or MRC5 cells: selective killing

## PRGPRPVWWRRWWRRWW [HILR-PRO-25]
[5]
  IC50: 10 µM
[6]
  lethality in MRC-5 cells: without lethality
